In PMC12067093, “Discovery and optimisation of a covalent ligand for TRIM25 and its application to targeted protein ubiquitination” (Chemical Science, 2025):

Biological target: T1, TRIM25 PRYSPRY (Homo sapiens, UniProt Q14258)
T1 construct: His6-TEV (cleaved yes); made in house; host or cells: Sf9 insect cells (baculovirus)
Assay: Intact protein LCMS covalent labelling of recombinant TRIM25 PRYSPRY
Assay type: binding
Conditions: TRIM25 PRYSPRY 10 μM, 4 °C; for TRIM25 PRYSPRY labelling (%): purified compound 50 μM, 24 h; for TRIM25 PRYSPRY labelling: heterobifunctional compound 50 μM, 20 hours
Experimental: 1 resin (ThermoFisher Scientific, 89964), eluted in 100 mM HEPES pH 7, 500 mM NaCl,
2 300 mM Imidazole, 5% glycerol, 1 mM TCEP, and stored at -80 °C.
5 into a pET49 vector with a His6-HRV-3C (Human Rhinovirus) tag and expressed in
6 BL21 E.coli cells (Agilent Technologies; 230132), with induction at 18 °C overnight by
7 addition of isopropyl β-D-1-thiogalactopyranoside (0.5 mM). Cells were harvested by
8 centrifugation at 4000 rpm in a Beckman J6-M1 rotor for 30 min at 4 °C, the
9 supernatant was discarded and cell pellets were either immediately lysed, or stored at
10 -80°C. The protein was purified via His6-capture on HisPurTM Ni-NTA resin in buffer
11 50 mM HEPES pH 7.5, 300 mM NaCl, 0.5 mM TCEP, 20 mM imidazole, washed
12 extensively with both high salt buffer (50 mM HEPES pH 7.5, 1 M NaCl, 0.5 mM TCEP,
13 20 mM imidazole) and wash buffer (50 mM HEPES pH 7.5, 300 mM NaCl, 0.5 mM
14 TCEP, 20 mM imidazole) before elution in buffer 50 mM HEPES pH 7.5, 300 mM NaCl,
15 0.5 mM TCEP, 500 mM imidazole, and tag cleavage with HRV-3C protease. Cleaved
16 protein was further purified by ion exchange chromatography and size exclusion
17 chromatography into 20 mM HEPES pH 7.5, 150 mM NaCl, 0.5 mM TCEP, and stored
21 For the original chloroacetamide fragment screen, 0.25 μM TRIM25 PRYSPRY or
23 25 mM HEPES pH 7.5, 50 mM NaCl buffer. For intact protein liquid chromatography
24 mass spectrometry (LCMS) kinetic characterisation, 0.5 μM TRIM25 PRYSPRY was
25 used. For selectivity testing with recombinant ubiquitin system protein panel, 10 µM
27 7.5, 50 mM NaCl buffer. Samples were then diluted to 0.5 µM for TRIM25 PRYSPRY,
28 TRIM21 PRYSPRY, OTUD7B OTU, ZRANB1 OTU or 1 µM for TRIM2 NHL, UBCH5B,
29 UBC13K92A, UEV1A, OTUD4 OTU, before injection into the LCMS. For TRIM25
30 PRYSPRY mutants, and for labelling of heterobifunctional compounds, 10 µM protein
32 mM NaCl buffer, and samples were diluted to 1 µM protein before injection into the […]

T1 sequence (Q14258 435-630): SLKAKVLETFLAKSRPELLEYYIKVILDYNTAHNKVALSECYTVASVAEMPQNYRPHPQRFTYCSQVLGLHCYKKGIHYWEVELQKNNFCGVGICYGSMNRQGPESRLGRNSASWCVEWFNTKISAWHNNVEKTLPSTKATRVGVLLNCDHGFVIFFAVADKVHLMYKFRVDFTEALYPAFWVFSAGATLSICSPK

SMILES | TRIM25 PRYSPRY labelling (%) | TRIM25 PRYSPRY labelling [%]
Cc1cc(C(=O)N2CCCN(C(=O)CCl)CC2)ccc1-c1ccccc1 [Compound 10] | 94 | 
CC1Cc2ccccc2N1C(=O)C1CCCN(C(=O)CCl)C1 (centres unmarked) [Compound 11] | 96 | 
Cc1cc(C(=O)N2CCCN(C(=O)CCl)CC2)ccc1-c1cccc(C(=O)NCCOCCOCCNC(=O)C[C@@H]2N=C(c3ccc(Cl)cc3)c3c(sc(C)c3C)-n3c(C)nnc32)c1 [HB1] |  | 49
Cc1cc(C(=O)N2CCCN(C(=O)CCl)CC2)ccc1-c1cccc(C(=O)NCCOCCOCCOCCNC(=O)C[C@@H]2N=C(c3ccc(Cl)cc3)c3c(sc(C)c3C)-n3c(C)nnc32)c1 [HB2] |  | 75
Cc1cc(C(=O)N2CCCN(C(=O)CCl)CC2)ccc1-c1cccc(C(=O)NCCOCCOCCOCCOCCNC(=O)C[C@@H]2N=C(c3ccc(Cl)cc3)c3c(sc(C)c3C)-n3c(C)nnc32)c1 [HB3] |  | 87
